Results published in patent US12582645B2, “Chemokine CXCR4 receptor modulators and uses related thereto” (Emory University, priority 2017, dated 2026).

Target: T1, CXCR4 (Homo sapiens, UniProt P61073)
T1 construct: Human T lymphoblast cells (CCRF-CEM) expressing endogenous CXCR4 receptors; endogenous in cells; host or cells: CCRF-CEM (human T lymphoblast cells)
Assay: CXCR4-CEM calcium flux assay, antagonist mode (inhibition of SDF-1α-induced calcium flux)
Assay type: cell-based
Conditions: CCRF-CEM cells expressing endogenous CXCR4, stimulated with 4 nM SDF-1α, read-out: CXCR4 Ca^2+ Flux IC50
Method: CXCR4-CEM Calcium Flux Assays
Exemplary compounds of the invention were tested for their ability to induce or inhibit calcium flux in CCRF-CEM cells, a human cell line that endogenously expresses CXCR4. Activation of CXCR4 stimulates G protein signaling which, in CCRF-CEM cells, causes a series of downstream events that leads to the release of intracellular calcium stores, or calcium flux. Calcium ion concentrations can be easily measured using a wide variety of […] calcium indicators and, as a result, calcium flux assays are commonly employed methods for measuring G protein-coupled receptor (GPCR) activity. Because the therapeutic potential of CXCR4 antagonists as anti-cancer agents likely relies on their ability to inhibit CXCR4-mediated G protein signaling, this assay was utilized as a first-pass measure of inhibitor potency.
The cells were then equilibrated to room temperature for 30 minutes before assay. […] For “antagonist mode” assessment, the cells are subsequently incubated for 25 minutes at room temperature. SDF-1α (R&D System Cat #350-NS/CF) was then added at a final concentration of 4 nM to stimulate the cells. Inhibition of SDF-1α-induced calcium flux was monitored by FDSS6000 for 90 seconds.
After correcting for background, EC50 values were determined. […] Inhibition data for the test compound over a range of concentrations was plotted as percentage inhibition of the test compound as compared to an internal control compound.

T1 sequence (P61073 whole entry): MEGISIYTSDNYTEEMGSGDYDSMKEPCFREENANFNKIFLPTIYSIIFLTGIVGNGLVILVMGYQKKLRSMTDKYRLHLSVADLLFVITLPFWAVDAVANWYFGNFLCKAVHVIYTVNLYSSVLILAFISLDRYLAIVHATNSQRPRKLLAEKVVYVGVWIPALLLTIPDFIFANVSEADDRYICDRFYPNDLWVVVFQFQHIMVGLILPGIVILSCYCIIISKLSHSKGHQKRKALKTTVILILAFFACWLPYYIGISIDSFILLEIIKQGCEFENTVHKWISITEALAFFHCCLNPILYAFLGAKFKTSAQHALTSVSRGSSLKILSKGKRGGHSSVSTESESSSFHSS

Compound | IC50 [nM]
Cc1cccnc1CN(C)C[C@H]1Cc2c(cccc2N2CCNCC2)CN1 [EMU127, (R)—N-methyl-1-(3-methylpyridin-2-yl)-N-((5-(piperazin-1-yl)-1,2,3,4-tetrahydroisoquinolin-3-yl)methyl)methanamine] | 91.2
Cc1ccc(CN(CCCCN)C[C@H]2Cc3c(cccc3N3CCNCC3)CN2)nc1 [EMU165, (R)—N1-((5-methylpyridin-2-yl)methyl)-N1-((5-(piperazin-1-yl)-1,2,3,4-tetrahydroisoquinolin-3-yl)methyl)butane-1,4-diamine] | 115
